We go through 40 compounds from PubChem BioAssay AID651841 (Broad Institute, 2012).

Several values for one entry are separate records, joined by “and”; a condition that tells them apart may be missing. Equal values may be shown once. Activity calls are given as the source filed them. How the calls were made is not given here.

In one test the test system is CAI-1 sensor histidine kinase CqsS (Vibrio cholerae). Description: CqsS sensor histidine kinase agonist dose response, Vibrio cholerae WN1103 delta luxQ, confirmatory (AID 651841). The conditions noted are these: V. cholerae WN1103 delta luxQ, luciferase light, 6 h.
With `CC(C)NC(=O)Cc1ccc(-c2ccccc2)cc1`, the AC40 was 2500 nM. For the compound `CCCn1nnnc1NCc1ccc(N2CCCC2)cc1`, the AC40 is 12.1 nM. Consider `CCCn1nnnc1NCc1ccc(C(C)C)cc1`, for which the AC40 was 319 nM. On the same count and under the same terms, as for `CCn1nnnc1NCc1ccc(N2CCCCC2)cc1`, the figure is 55.5 nM; as for `CCCCn1nnnc1NCc1ccc(N2CCCC2)cc1`, 2640 nM. Turning to `O=C(Cc1ccc(-c2ccccc2)cc1)NC1CCC1`, the AC40 is 280 nM. Still for that read-out and setting: to `CCn1nnnc1CCc1ccc(N2CCCC2)cc1` belongs 713 nM; to `CCn1nnnc1NCc1cccc(N2CCCC2)c1`, 51.2 nM; to `CC(C)c1ccc(CNc2nnnn2C)cc1`, 577 nM. Same read-out and setting: to `Cn1nnnc1NCc1ccc(N2CCCC2)cc1` belongs 351 nM; to `CCC(C)NC(=O)Cc1ccc(-c2ccccc2)cc1` (stereo not given), 2060 nM. For the compound `O=C(Cc1ccc(-c2ccccc2)cc1)NC1CCCC1`, the AC40 was 212 nM and 313 nM. Consider `CCn1nnnc1NCc1ccc(C(C)C)cc1`, for which the AC40 is 5.01 nM and 45.1 nM. Same read-out and setting: as for `O=C(Cc1ccc(-c2ccccc2)cc1)NC1CCOCC1`, the figure is 1200 nM; as for `O=C(Cc1ccc(-c2ccccc2)cc1)NC1CCCCC1`, 8980 nM. `CCn1nnnc1NCc1ccc(N2CCCC2)cc1`: the AC40 was 10.7 nM. Take `CCC(CC)NC(=O)Cc1ccc(-c2ccccc2)cc1`: the AC40 is 2200 nM.

Still in this test, the particulars now being: V. cholerae WN1103 delta luxQ, luciferase light, 6 h; at 80 µM (top of the series).
On to `c1ccc(-n2nnnc2NCc2ccc(N3CCCC3)cc2)cc1`, for which the activation is 0.501% (inactive). For `O=C(Cc1cccc(F)c1)NC1CCCC1`, the activation was 0.377% (inactive). As for `CCn1nccc1/N=C/c1ccc(N2CCCC2)cc1`, the activation was 0.487% (inactive). For the compound `Fc1ccc(Cn2nnnc2NCc2ccc(N3CCCC3)cc2)cc1`, the activation was 0.54% (inactive).

Take `Cc1ccccc1CC(=O)NC1CCCC1`: the activation is 0.164% (inactive). With `c1ccc(Cn2nnnc2NCc2ccc(N3CCCC3)cc2)cc1`, the activation is 0.279% (inactive). Still for that read-out and setting: to `O=C(Cc1cccc(OC(F)(F)F)c1)NC1CCCC1` belongs 2.18% (inactive). For the compound `O=C(NCc1ccc(-c2ccccc2)cc1)C1CCCC1`, the activation is 3.17% (inactive). `O=C(Cc1ccccc1OC(F)(F)F)NC1CCCC1`: the activation is 0.045% (inactive). Consider `c1ccc(Cn2nnc(NCc3ccc(N4CCCC4)cc3)n2)cc1`, for which the activation is 0.159% (inactive). As for `CCc1ccccc1NCc1ccc(N2CCCC2)cc1`, the activation is 0.105% (inactive). Regarding `CS(=O)(=O)c1ccc(CC(=O)NC2CCCC2)cc1`, the activation was 0.008% (inactive).

`CCCn1nnnc1NCc1ccccc1Cl`: the activation was 0.104% (inactive).

Take `O=C(Cc1ccccc1C(F)(F)F)NC1CCCC1`: the activation was 0.044% (inactive). In the case of `O=C(Cc1ccccc1F)NC1CCCC1`, the activation is 0.603% (inactive). As to `CCn1nnnc1NCc1ccccc1N1CCCC1`, the activation was 0.052% (inactive).

`CCn1nnnc1NCc1cccc(OC)c1`: the activation was 24.5% (inactive). As to `Cc1ccc(Cn2nnnc2NCc2ccc(N3CCCC3)cc2)cc1`, the activation was 0.549% (inactive). As for `O=C(Cc1ccccc1Cl)NC1CCCC1`, the activation is 0.107% (inactive). For `CCn1nnc(NCc2ccc(C)cc2)n1`, the activation was 0.069% (inactive).

For the compound `CCn1nccc1NCc1ccc(N2CCCC2)cc1`, the activation is 0.149% (inactive).

As to `COc1ccc(CC(=O)NC2CCCC2)cc1`, the activation was 13% (inactive). As for `CCn1nnc(CCc2ccc(N3CCCC3)cc2)n1`, the activation was 0.131% (inactive).
